Results on 17 compounds are retold here after patent publication US20230144901A1, “SORTILIN ANTAGONISTS FOR USE IN THE TREATMENT OF DIABETIC RETINOPATHY” (Insusense ApS, priority 2020, published 2023).

SMILES strings stand for the structures.

The first assay relates to light sensitive cells of the retina in mice. The experiment in a line: Diabetic mouse model: flash electroretinography (fERG) before and 8 weeks after STZ induction of diabetes. Type of assay: in vivo. To be noted: intravitreal 2 μl of a 1 μg/μl solution, versus vehicle control group. The protocol:
Flash electroretinography (fERG) was used to measure the electrical response of the light sensitive cells of the retina in mice both prior to streptozocin (STZ) induction of diabetes (baseline) and 8 weeks after induction. Mice were exposed to increasing intensities of light flashes and the resulting electrical responses, measured in amplitude, were recorded. The skilled person will recognise that a cell with a higher measured amplitude is indicative of a healthy cell whilst cells with lower amplitudes is indicative of a damaged cell which is no longer functioning optimally. In the experimental group, the mice were administered with a polyclonal anti-sortilin antibody (2 ul of a 1 μg/μl solution in Dulbecco's Phosphate buffered saline) by intravitrial administration whereas in the control group the mice were administered with the vehicle only (Dulbecco's Phosphate buffered saline). All other variables, such as food intake, diet, exercise levels and exposure to environmental enrichment were kept the same between the two groups.
For `Cc1cccc(NC(=O)c2ccc(C(F)(F)F)cc2C(=O)O)n1` [Example 8, 2-[(6-methylpyridin-2-yl)carbamoyl]-5-(trifluoromethyl)benzoic acid], the “reduction in the fERG response (a wave and b wave) 8 weeks after induction compared to the baseline” value was “smaller for the experimental group compared to the control group”.

Still in this assay, the particulars now being: intravitreal, fERG 8 weeks after induction.
Take `Cc1cccc(NC(=O)c2ccc(C(F)(F)F)cc2C(=O)O)n1` [Example 8, 2-[(6-methylpyridin-2-yl)carbamoyl]-5-(trifluoromethyl)benzoic acid]: the “protective effect on retinal cells compared with the polyclonal antibody of the first study” value is “greater than that of the polyclonal antibody”.

A further assay deals with T1, hSortilin (Homo sapiens, UniProt Q99523).
T1 sequence (Q99523 78-831): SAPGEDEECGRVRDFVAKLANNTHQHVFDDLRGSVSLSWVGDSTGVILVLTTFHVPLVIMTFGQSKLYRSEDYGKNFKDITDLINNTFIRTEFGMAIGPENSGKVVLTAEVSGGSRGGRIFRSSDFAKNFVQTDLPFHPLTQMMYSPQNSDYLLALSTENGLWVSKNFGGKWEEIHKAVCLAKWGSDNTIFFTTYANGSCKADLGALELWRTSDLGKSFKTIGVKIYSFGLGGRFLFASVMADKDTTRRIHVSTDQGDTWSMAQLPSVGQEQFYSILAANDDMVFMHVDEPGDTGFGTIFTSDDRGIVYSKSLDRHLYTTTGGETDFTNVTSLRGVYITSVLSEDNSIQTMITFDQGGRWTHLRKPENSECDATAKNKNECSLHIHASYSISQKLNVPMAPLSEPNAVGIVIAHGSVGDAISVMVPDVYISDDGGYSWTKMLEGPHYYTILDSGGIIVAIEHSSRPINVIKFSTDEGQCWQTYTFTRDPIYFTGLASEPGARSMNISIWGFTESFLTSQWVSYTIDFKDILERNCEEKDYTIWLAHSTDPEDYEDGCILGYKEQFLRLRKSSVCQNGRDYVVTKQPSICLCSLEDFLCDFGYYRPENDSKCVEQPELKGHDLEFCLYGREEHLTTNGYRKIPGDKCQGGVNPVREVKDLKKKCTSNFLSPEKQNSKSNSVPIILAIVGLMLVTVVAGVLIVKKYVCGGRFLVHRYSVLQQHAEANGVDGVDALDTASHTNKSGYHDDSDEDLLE
The experiment in a line: Neurotensin (NTS) scintillation proximity assay (SPA): displacement of 3H-neurotensin binding to hSortilin. The note with it: 150 nM 6his-Sortilin, 5 nM [3H]-Neurotensin; average of at least 4 determinations.
As for `Cc1cccc(NC(=O)c2ccc(Br)cc2C(=O)O)n1` [Example 1, 5-bromo-2-[(6-methylpyridin-2-yl)carbamoyl]benzoic acid], the IC50 – broadly, the concentration needed to halve the response being measured – was determined as 0.71 µM.
The same measure, in the same setting: the figure for `Cc1cccc(NC(=O)c2cc(Br)ccc2C(=O)O)n1` [Example 2, 4-bromo-2-[(6-methylpyridin-2-yl)carbamoyl]benzoic acid] is 12 µM.
In turn, `Cc1cccc(NC(=O)c2ccc([N+](=O)[O-])cc2C(=O)O)n1` [Example 9, 2-[(6-methylpyridin-2-yl)carbamoyl]-5-nitrobenzoic acid] registered an IC50 of 1.7 µM. Against the preceding compound, the IC50 is about 7.1-fold lower.
Take `Cc1cccc(NC(=O)c2ccc(Br)cc2C(=O)O)c1` [Example 20, 5-bromo-2-[(3-methylphenyl)carbamoyl]benzoic acid]: the half-maximal inhibitory concentration (IC50) was determined as 5.2 µM. This IC50 is about 3.1-fold higher than that of the compound before.
`O=C(O)c1cc(C(F)(F)F)ccc1C(=O)Nc1ccc2c(n1)CCCC2` [Example 30, 2-[(5,6,7,8-tetrahydroquinolin-2-yl)carbamoyl]-5-(trifluoromethyl)benzoic acid] yielded an IC50 of 0.1 µM.

Staying with this assay, now noted: read-out: % inhibition at 50 μM; NTS SPA, compound at 50 μM (footnote *).
Consider `Cc1cccc(NC(=O)c2ccccc2C(=O)O)n1` [Example 3, 2-[(6-methylpyridin-2-yl)carbamoyl]benzoic acid], for which the inhibition (in general, the share of the control response that was lost under treatment) at 50 µM worked out at 15%.
As for `Cc1cccc(NC(=O)c2cccc(C)c2C(=O)O)n1` [Example 4, 2-methyl-6-[(6-methylpyridin-2-yl)carbamoyl]benzoic acid], the inhibition at 50 µM stood at 5%.
As to `Cc1cccc(NC(=O)c2ccc(-c3ccccc3)cc2C(=O)O)n1` [Example 10, 4-[(6-methylpyridin-2-yl)carbamoyl]-[1,1′-biphenyl]-3-carboxylic acid], the inhibition at 50 µM worked out at 2%.
For `Cc1cccc(NC(=O)c2cc(Cl)ccc2C(=O)O)n1` [Example 11, 4-chloro-2-[(6-methylpyridin-2-yl)carbamoyl]benzoic acid], the inhibition at 50 µM amounted to 69%.
Still for that read-out and setting: then `Cc1ccc(C(=O)O)c(C(=O)Nc2cccc(C)n2)c1` [Example 12, 4-methyl-2-[(6-methylpyridin-2-yl)carbamoyl]benzoic acid], with 57%.
Still for that read-out and setting: the figure for `Cc1cccc(NC(=O)c2c(C)cccc2C(=O)O)n1` [Example 16, 3-methyl-2-[(6-methylpyridin-2-yl)carbamoyl]benzoic acid] is 43%.
For `CCC(C)NC(=O)c1ccc(Br)cc1C(=O)O` (stereo not drawn) [Example 17, 5-bromo-2-[(butan-2-yl)carbamoyl]benzoic acid], the inhibition at 50 µM is 30%.
Turning to `CC(C)NC(=O)c1ccc(Br)cc1C(=O)O` [Example 18, 5-bromo-2-[(propan-2-yl)carbamoyl]benzoic acid], the inhibition at 50 µM was 35%.
The same measure, in the same setting: the figure for `O=C(O)c1cc(Br)ccc1C(=O)Nc1ccccc1` [Example 19, 5-bromo-2-(phenylcarbamoyl)benzoic acid] is 69%.
Take `Cc1cccnc1NC(=O)c1ccc(Br)cc1C(=O)O` [Example 24, 5-bromo-2-[(3-methylpyridin-2-yl)carbamoyl]benzoic acid]: the inhibition at 50 µM was 64%.
Same read-out and setting: then `Cc1ccc(NC(=O)c2ccc(Br)cc2C(=O)O)cn1` [Example 25, 5-bromo-2-[(6-methylpyridin-3-yl)carbamoyl]benzoic acid], with 70%.
